Assay results: US9044409B2, “Use of chromen-4-one derivatives” (Merck Patent GmbH, priority 2003, dated 2015)
Each block holds one molecule with its values, some of them ahead of it.

Experiments:
[1] = test system: PGE2 release from human keratinocytes (cell line NCTC R13); experiment: Antiinflammatory properties (PGE2 assay): PMA-induced PGE2 release, ELISA; type: cell-based; conditions: for PGE2: PMA-stimulated, 24 h; for PGE2 release % compared with control: control (only PMA) = 100
Description: Human keratinocytes of the cell line NCTC R13 are pre-cultivated for 24 hours at 37° C. in a 5% CO2 atmosphere with DMEM culture medium (Life Technologies). The cells are treated with LU for 24 hours, and the culture medium is then removed. A fresh culture medium containing the inflammation-triggering active ingredient phorbol myristate acetate (PMA; […]) and LU is added. After incubation for 24 hours, the culture medium is collected and analysed. By means of an ELISA DE0100 kit (R&D Systems), the release is used in order to investigate the release of the inflammation marker prostaglandin E2 (PGE2) (Table).

[2] = biological target: T1, elastase (from human leukocytes) (Homo sapiens, UniProt P08246); experiment: Action on the activity of leukocyte elastase (fluorescence, elastin substrate); type: biochemical
T1 construct: elastase (from human leukocytes; Sigma E8140; 100 mU/well); purchased Sigma E8140; host or cells: human leukocytes
T1 sequence (P08246 30-267): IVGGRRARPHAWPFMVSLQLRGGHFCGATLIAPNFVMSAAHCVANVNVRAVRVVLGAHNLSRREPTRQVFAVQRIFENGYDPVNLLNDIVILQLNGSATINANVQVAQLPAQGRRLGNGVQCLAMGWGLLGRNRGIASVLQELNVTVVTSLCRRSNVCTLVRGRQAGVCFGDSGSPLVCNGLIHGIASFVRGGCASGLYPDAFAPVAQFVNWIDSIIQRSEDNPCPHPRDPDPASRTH
Description: 5,7-Dihydroxy-2-methylchromen-4-one in TRIS buffer (500 mM) is incubated for 10 minutes on ice with elastase (from human leukocytes; Sigma E8140; 100 mU/well). 5 μg/well of elastin are subsequently added, and the plates are incubated at 37° C. for 2 hours. The fluorescence is determined using a Spectromax Gemini spectrometer (Molecular Devices) at λex=485 nm and λem=538 nm.

[3] = biological target: T2, hyaluronidase (HYAL, Sigma type IV-S, H3884) (Bos taurus, UniProt Q2YDK3); experiment: Action on the activity of hyaluronidase (remaining hyaluronic acid determined photometrically); type: biochemical; conditions: for Hyaluronidase activity: control (no LU) = 100
T2 construct: hyaluronidase (HYAL, Sigma type IV-S, H3884)
T2 sequence (Q2YDK3 1-553): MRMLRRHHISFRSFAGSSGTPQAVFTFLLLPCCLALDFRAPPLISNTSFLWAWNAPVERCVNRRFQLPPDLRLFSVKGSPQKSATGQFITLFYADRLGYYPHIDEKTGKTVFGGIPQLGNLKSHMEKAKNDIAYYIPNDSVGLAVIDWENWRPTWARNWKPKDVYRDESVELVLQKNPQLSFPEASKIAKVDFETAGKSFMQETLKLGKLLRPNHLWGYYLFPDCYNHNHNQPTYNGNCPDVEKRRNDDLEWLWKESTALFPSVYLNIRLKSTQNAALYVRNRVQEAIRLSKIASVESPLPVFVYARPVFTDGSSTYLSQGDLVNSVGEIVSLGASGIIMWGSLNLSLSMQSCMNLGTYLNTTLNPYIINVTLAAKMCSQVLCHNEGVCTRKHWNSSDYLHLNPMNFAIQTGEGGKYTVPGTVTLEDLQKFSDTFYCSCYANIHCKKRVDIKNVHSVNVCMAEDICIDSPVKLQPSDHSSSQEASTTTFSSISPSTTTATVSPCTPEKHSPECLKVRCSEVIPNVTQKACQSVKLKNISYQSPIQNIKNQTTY
Description: 5,7-Dihydroxy-2-methylchromen-4-one in phosphate buffer (0.1 M) is pre-incubated with hyaluronidase (HYAL, Sigma type IV-S, H3884; 1 mg/l in phosphate buffer (0.1 M)). Hyaluronic acid (HA, Sigma H-1876; 1.2 mg/ml) is subsequently added, and the mixture is incubated at 37° C. for 1 hour. The remaining hyaluronic acid (HA) is subsequently precipitated using serum albumen (BSA, Sigma A7888) and determined photometrically.

keratinocyte cultures = conditions: cited from earlier work
[4] = over the entire pH range; cited from earlier work

- % quenching ([2]; 40 μM LU): 0%
- Fluorescence intensity ([2]; 40 μM LU): 2195.9
- inhibition at 40 µM ([2]; 40 μM LU): 10%
- remaining activity at 40 µM ([2]; 40 μM LU, neg. control = 100, read-out: Elastase activity % compared with control): 90%
- % quenching ([2]; 200 μM LU): 19%
- Fluorescence intensity ([2]; 200 μM LU): 1096.4
- inhibition at 200 µM ([2]; 200 μM LU): 45%
- remaining activity at 200 µM ([2]; 200 μM LU, neg. control = 100, read-out: Elastase activity % compared with control): 45%
- inhibition at 3125 µM ([3]; 3.125 mM LU): 9%
- Hyaluronidase activity ([3]; 3.125 mM LU): 91
- inhibition at 6250 µM ([3]; 6.25 mM LU): 19%
- Hyaluronidase activity ([3]; 6.25 mM LU): 81
- inhibition at 12500 µM ([3]; 12.5 mM LU): 37%
- Hyaluronidase activity ([3]; 12.5 mM LU): 63
- inhibition at 25000 µM ([3]; 25 mM LU): 63%
- Hyaluronidase activity ([3]; 25 mM LU): 37
SMILES: Cc1cc(=O)c2c(O)cc(O)cc2o1 [LU, 5,7-dihydroxy-2-methylchromen-4-one]
- PGE2 ([1]; 0.008 mM LU): 340.62 ng/mL
- PGE2 release % compared with control ([1]; 0.008 mM LU): 113%
- PGE2 ([1]; 0.04 mM LU): 226.39 ng/mL
- PGE2 release % compared with control ([1]; 0.04 mM LU): 75%
- PGE2 ([1]; 0.2 mM LU): 6.31 ng/mL
- PGE2 release % compared with control ([1]; 0.2 mM LU): 2%
- PGE2 release on exposure to PMA (in words) ([1]; doses of 0.2 mM and 0.04 mM): clear reduction in PGE2 release
- Inhibition of the elastase activity (in words) ([2]; doses of 200 μM and 40 μM): clear inhibition of the elastase activity
- Inhibition of hyaluronidase activity (in words) ([3]; in the doses investigated (3.125-25 mM)): clear inhibition of hyaluronidase activity

SMILES: O=C1CCOc2ccccc21 [Example 4-chromanone, 4-chromanone]
- cell differentiation (keratinocyte cultures): promotes cell differentiation
- lipid production (keratinocyte cultures): stimulates lipid production

SMILES: O=c1c(O)c(-c2ccc(O)c(O)c2)oc2cc(O)cc(O)c12 [Quercetin, 3,3′,4′,5,7-pentahydroxyflavone]
- antioxidant activity [4]: greatest activity amongst the structures investigated
